Assay results as given in paper PMC8842743 (Journal of Alzheimer's Disease Reports, 2022).

Test system: healthy subjects
Assay: Clinical liver safety laboratory data over time
Type: in vivo, human
Settings: mean (SD)

COc1cnc(C(=O)Nc2ccc(F)c([C@]34CN(c5ncc(F)cn5)C[C@H]3CSC(N)=N4)c2)cn1 [LY3202626]
Albumin (6 mg daily, Day 8): 46.3 (1.6) g/L | GGT (6 mg daily, Day 8): 21.7 (10.8) U/L | Total Bilirubin (6 mg daily, Day 8): 8.1 (2.8) umol/L | ALP (6 mg daily, Day 10): 62.9 (15.4) U/L | ALT (6 mg daily, Day 10): 17.9 (2.3) U/L | AST (6 mg daily, Day 10): 19.6 (6.0) U/L | Albumin (6 mg daily, Day 10): 46.0 (1.7) g/L | GGT (6 mg daily, Day 10): 20.6 (8.7) U/L | Total Bilirubin (6 mg daily, Day 10): 8.2 (2.7) umol/L | ALP (6 mg daily, Day 12): 63.6 (17.2) U/L | ALT (6 mg daily, Day 12): 16.9 (2.5) U/L | AST (6 mg daily, Day 12): 17.2 (3.8) U/L | Albumin (6 mg daily, Day 12): 46.7 (1.6) g/L | GGT (6 mg daily, Day 12): 20.3 (8.2) U/L | Total Bilirubin (6 mg daily, Day 12): 7.4 (2.4) umol/L | ALP (6 mg daily, Day 14): 62.2 (16.0) U/L | ALT (6 mg daily, Day 14): 15.2 (2.5) U/L | AST (6 mg daily, Day 14): 15.3 (4.3) U/L | Albumin (6 mg daily, Day 14): 44.4 (1.8) g/L | GGT (6 mg daily, Day 14): 19.3 (10.3) U/L | Total Bilirubin (6 mg daily, Day 14): 8.1 (5.0) umol/L | ALP (6 mg daily, Day 15): 58.9 (14.3) U/L | ALT (6 mg daily, Day 15): 16.1 (2.9) U/L | AST (6 mg daily, Day 15): 15.9 (3.9) U/L | Albumin (6 mg daily, Day 15): 43.8 (2.1) g/L | GGT (6 mg daily, Day 15): 18.6 (8.6) U/L | Total Bilirubin (6 mg daily, Day 15): 7.3 (3.0) umol/L | ALP (6 mg daily, Day 17): 65.0 (18.7) U/L | ALT (6 mg daily, Day 17): 19.8 (4.3) U/L | AST (6 mg daily, Day 17): 18.9 (3.5) U/L | Albumin (6 mg daily, Day 17): 46.0 (1.7) g/L | GGT (6 mg daily, Day 17): 20.9 (9.7) U/L | Total Bilirubin (6 mg daily, Day 17): 6.3 (4.7) umol/L | ALP (26 mg daily, Day 1 predose): 56.9 (12.0) U/L | ALT (26 mg daily, Day 1 predose): 16.9 (6.3) U/L | AST (26 mg daily, Day 1 predose): 15.2 (2.5) U/L | Albumin (26 mg daily, Day 1 predose): 46.3 (1.9) g/L | GGT (26 mg daily, Day 1 predose): 18.3 (8.2) U/L | Total Bilirubin (26 mg daily, Day 1 predose): 9.0 (2.6) umol/L | ALP (26 mg daily, Day 2): 57.9 (11.3) U/L | ALT (26 mg daily, Day 2): 15.6 (6.2) U/L | AST (26 mg daily, Day 2): 14.6 (2.7) U/L | Albumin (26 mg daily, Day 2): 46.2 (1.9) g/L | GGT (26 mg daily, Day 2): 18.9 (8.5) U/L | Total Bilirubin (26 mg daily, Day 2): 8.6 (2.6) umol/L | ALP (26 mg daily, Day 3): 57.2 (11.1) U/L | ALT (26 mg daily, Day 3): 16.2 (6.4) U/L | AST (26 mg daily, Day 3): 14.9 (3.6) U/L | Albumin (26 mg daily, Day 3): 45.0 (2.7) g/L | GGT (26 mg daily, Day 3): 18.6 (8.8) U/L | Total Bilirubin (26 mg daily, Day 3): 7.1 (2.3) umol/L | ALP (26 mg daily, Day 4): 58.6 (10.8) U/L | ALT (26 mg daily, Day 4): 16.9 (5.6) U/L | AST (26 mg daily, Day 4): 16.8 (3.8) U/L | Albumin (26 mg daily, Day 4): 46.0 (1.9) g/L | GGT (26 mg daily, Day 4): 19.0 (9.6) U/L | Total Bilirubin (26 mg daily, Day 4): 6.7 (1.4) umol/L | ALP (26 mg daily, Day 6): 57.6 (12.0) U/L | ALT (26 mg daily, Day 6): 16.2 (5.2) U/L | AST (26 mg daily, Day 6): 17.8 (3.2) U/L | Albumin (26 mg daily, Day 6): 44.9 (2.0) g/L | GGT (26 mg daily, Day 6): 18.2 (8.5) U/L | Total Bilirubin (26 mg daily, Day 6): 8.6 (3.0) umol/L | ALP (26 mg daily, Day 8): 59.3 (10.8) U/L | ALT (26 mg daily, Day 8): 16.8 (4.5) U/L | AST (26 mg daily, Day 8): 16.4 (3.0) U/L | Albumin (26 mg daily, Day 8): 46.3 (2.9) g/L | GGT (26 mg daily, Day 8): 18.6 (7.2) U/L | Total Bilirubin (26 mg daily, Day 8): 8.6 (4.6) umol/L | ALP (26 mg daily, Day 10): 60.7 (11.4) U/L | ALT (26 mg daily, Day 10): 15.8 (5.5) U/L | AST (26 mg daily, Day 10): 16.1 (2.7) U/L | Albumin (26 mg daily, Day 10): 45.8 (2.0) g/L | GGT (26 mg daily, Day 10): 17.9 (7.4) U/L | Total Bilirubin (26 mg daily, Day 10): 8.7 (4.2) umol/L | ALP (26 mg daily, Day 12): 60.1 (9.6) U/L | ALT (26 mg daily, Day 12): 16.9 (5.6) U/L | AST (26 mg daily, Day 12): 18.3 (3.5) U/L | Albumin (26 mg daily, Day 12): 44.9 (2.3) g/L | GGT (26 mg daily, Day 12): 17.7 (7.4) U/L | Total Bilirubin (26 mg daily, Day 12): 8.3 (4.5) umol/L | ALP (26 mg daily, Day 14): 59.3 (10.2) U/L | ALT (26 mg daily, Day 14): 17.1 (7.4) U/L | AST (26 mg daily, Day 14): 16.3 (4.0) U/L | Albumin (26 mg daily, Day 14): 43.7 (2.2) g/L | GGT (26 mg daily, Day 14): 18.1 (8.8) U/L | Total Bilirubin (26 mg daily, Day 14): 5.8 (2.4) umol/L | ALP (26 mg daily, Day 15): 58.6 (9.6) U/L | ALT (26 mg daily, Day 15): 16.8 (7.8) U/L | AST (26 mg daily, Day 15): 16.2 (4.6) U/L | Albumin (26 mg daily, Day 15): 44.0 (2.6) g/L | GGT (26 mg daily, Day 15): 17.6 (8.8) U/L | Total Bilirubin (26 mg daily, Day 15): 7.2 (1.9) umol/L | ALP (26 mg daily, Day 17): 65.7 (11.5) U/L | ALT (26 mg daily, Day 17): 20.0 (9.8) U/L | AST (26 mg daily, Day 17): 18.6 (6.2) U/L | Albumin (26 mg daily, Day 17): 45.9 (1.3) g/L | GGT (26 mg daily, Day 17): 20.7 (11.1) U/L | Total Bilirubin (26 mg daily, Day 17): 7.3 (4.6) umol/L
